Source: paper PMC12392461, “Beyond Estrogenicity: A Comparative Assessment of Bisphenol A and Its Alternatives in In Vitro Assays Questions Safety of Replacements” (Environmental Science & Technology, 2025)
Like-named read-outs stand apart in the source and are kept apart here.

Assays:
[1] = tested on: HEK293H (PPARγ); details: for IC10, linear: linear model; for IC10, HEK293, PPARγ: cytotoxicity, HEK293 (PPARγ assay cells)
How it was run: (§1)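 IncuCyte confluency readout, pre- vs post-24 h exposure, normalized to no-cell wells. Seeding 24 h before dosing; ERα 5000, AhR 3250 cells/well. 11-point dilutions, duplicates, ≥3 independent runs. Methanol <1%. IC10 caps data used for EC10/ECIR1.5.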

[2] = tested on: HEK293T (ERα); details: for IC10, HEK293, ERα: HEK293 (ERα assay cells)
How it was run: as §1

[3] = tested on: H4IIe (AhR CALUX); details: for Toxic ratio (TR) TRAhR: against baseline cytotoxicity; for IC10, H4IIe, AhR: H4IIe (AhR assay cells)
How it was run: as §1

[4] = Abiotic CYP (aCYP) oxidation, remaining parent compound (Cparent-Ratio); details: for reduction of C parent after aCYP oxidation: 15 min, 30 °C; for Cparent-Ratio Rep.1 %: Table S9, replicate 1; for Cparent-Ratio Rep.2 %: Table S9, replicate 2
[5] = Octanol-water partition constant (log Kow) measurement, Sirius T3 potentiometric log P; assay type: physicochemical; details: experimental, this study
Experimental: Physicochemical properties provide input parameters for the baseline toxicity model. Acidity constants (pK a) and octanol–water partition constants of the neutral species (K ow) were measured with a Sirius T instrument from Pion Inc. (Sussex, UK) (Text S1.2 and Table S1). A detailed description of the pK a and K ow measurements can be found in literature. , […]
S1.2: pKa and log Kow measurements […]
titrator (Pion Inc., Sussex, U.K.). […]
UV absorbance. For log Kow measurement, approximately 1 mg of test chemical was added to a sample vial and the measurement was done automatically via the potentiometric log P protocol. Briefly, each compound is titrated thrice in an immiscible biphasic system of octanol and phosphate buffer solution and pH is continuously recorded. The shift in p Ka -values was used to estimate the log Kow values.2, 3 Data processing was performed with Sirius T3 Refine software (version 2.0.0.0.), and the final p Ka and log Kow values were calculated as the average of three titrations. To ensure reproducibility, measurements were conducted on at least two

[6] = tested on: ERα-UAS-bla GripTite cells; details: for TKcytotoxicity (TK-Ratio for cytotoxicity): IC10 before/after aCYP oxidation; for TKcytotoxicity: TKcytotoxicity-Ratio
Experimental: Cell culture conditions and bioassay protocols including response detection are provided in Text S2.1–2.4 and Table S3. − Cell viability was determined from cell confluency using an IncuCyte S3 Live-Cell Analysis System (Sartorius AG, Essen, Germany) before and after exposure, except for SH-SY5Y cells (live–dead staining with Nuclear Green LcS1 and propidium iodide, Abcam, UK). For metabolic activation experiments, cell viability was assessed using the ToxBLAzer DualScreen Kit (Thermo Fisher Scientific) to capture the remaining toxicity in ERα-UAS-bla GripTite after treatment with the aCYP catalyst (details in Text S2.4). […]
The TK-Ratio method was used to evaluate the impact of abiotic CYP oxidation on the potency of tested compounds. […]
For experiments with the preceding aCYP activation, ERα cell viability was additionally calculated from the readout of the ToxBLAzer reagent. The ToxBLAzer assay was conducted following the manufacturer's instructions (Thermo Fisher, Waltham, MA, U.S.).13 Fluorescence intensity was recorded at the start of the assay ( Fwavelength(0h)) and after a 2-hour incubation at […]
eq. S11 for normalization.
Cell viability = F665nm(2h, sample)-F665nm(0h, average cell-free) (S11) F665nm(2h, average unexposed)-F665nm(0h, average cell-free) […]
the specific endpoint to avoid artifacts from cytotoxicity burst. 15
S2.5: Concentration-response curves (CRCs)
To avoid bias from cytotoxicity burst at higher concentrations, all concentrations exceeding the IC10 for cytotoxicity were excluded in the CRC modeling of effects but otherwise cytotoxicity and effects were fitted with the same model equations (response stands for cytotoxicity or effect). For ERα, AhR, ARE and PPARγ preferably a linear model was fitted to the linear portion of CRC up to maximum 30% effect (eq. S12),16 but in some cases it was necessary to choose a sigmoidal log-concentration-response model, specifically a log-logistic model (eq. S13), to derive effect concentrations and cytotoxicity. […]
This was done using the
AutomatedBioassayScreening19 published by Braun et al.,20 which also included an algorithm to choose the best model between eq. S12 and eq. S13.
Response (%) = slope × C (S12) […]
logEC =logEC − 1 ∙log (max−min − 100%) (S14)

[7] = Table S9, loss of parent after aCYP oxidation
[8] = Table S9, mean of two replicate experiments
[9] = Table S9, replicate 1, as fraction
[10] = Table S9, replicate 2, as fraction
[11] = Table S11, measured simultaneously with bioassay
[12] = PPARγ bioassay cytotoxicity, dosing range high
[13] = PPARγ bioassay cytotoxicity, dosing range low
[14] = Bioassay ERα, cytotoxicity, dosing range all
[15] = Bioassay ERα, cytotoxicity, dosing range all, linear model fit
[16] = Bioassay ERα, cytotoxicity, dosing range all, log-logistic model fit
[17] = Bioassay AhR, cytotoxicity, dosing range all
[18] = Bioassay AhR, cytotoxicity, dosing range all, linear model fit
[19] = Bioassay AhR, cytotoxicity, dosing range all, log-logistic model fit
[20] = PPARγ bioassay cytotoxicity, dosing range all
[21] = PPARγ bioassay cytotoxicity, dosing range all, log-logistic model

Structure (SMILES) | % Loss [4, 7] [%] | Cparent-Ratio Mean [4, 8] | Cparent-Ratio Rep.1 % [4] [%] | Cparent-Ratio Rep.1 [4, 9] | Cparent-Ratio Rep.2 % [4] [%] | Cparent-Ratio Rep.2 [4, 10] | log Kow used [5] | TKcytotoxicity ([6]; Table S10) | Toxic ratio (TR) TRPPARγ ([1]; against baseline cytotoxicity) | IC10, HEK293, PPARγ [1] [µM] | IC10, linear transformed [2, 14] | IC10, linear [2, 15] | logIC10 [2, 16] | IC10, HEK293, ERα ([2]; cytotoxicity) [µM] | IC10, linear transformed [3, 17] | IC10, linear [3, 18] | logIC10 [3, 19] | IC10, H4IIe, AhR ([3]; cytotoxicity) [µM] | IC10, linear transformed [1, 20] | logIC10 [1, 21] | also measured
CC(C)(c1ccc(O)cc1)c1ccc(O)cc1 [BPA, 4,4'-(Propane-2,2-diyl)diphenol, reference compound] | 15 | 0.85 | 86.04 | 0.86 | 84.76 | 0.85 | 4.25 | 1.13 |  |  |  |  |  |  |  |  |  |  |  |  | Toxic ratio (TR) TRPPARγ ([1]; human, 24 h): 0.38; logIC10 ([1]; human, 24 h): -4.45; IC10, linear [2]: no cytotoxicity; logIC10 [2]: no cytotoxicity; Toxic ratio (TR) TRERα ([2]; human, 24 h): 0.28; logIC10 ([2]; human, 24 h): -4.33; IC10, linear [3]: no cytotoxicity; logIC10 ([3]; rat, 24 h): -3.77; reduction of C parent after aCYP oxidation [4]: 15%; % Loss ([4]; Table S11): 11%; Cparent-Ratio Mean [4, 11]: 0.89; Cparent-Ratio Rep.1 [4, 11]: 0.90; Cparent-Ratio Rep.2 [4, 11]: 0.88; TKcytotoxicity (TK-Ratio for cytotoxicity) [6]: ≤ 2; TKcytotoxicity ([6]; Table S11): 0.63
O=S(=O)(c1ccc(O)cc1)c1ccc(OCc2ccccc2)cc1 [BPS-MPE, 4-[4-(benzyloxy)benzenesulfonyl]phenol] | 0.295 | 1.00 | 118.51 | 1.19 | 80.90 | 0.81 | 4.28 | 0.45 | 0.09 | 134 | 3.17E-05 | 1.12E-04 | -4.00 | 112 | 5.80E-05 | 5.18E-05 | -4.24 | 51.8 |  |  | IC10, linear transformed [1, 12]: 9.04E-06; IC10, linear [1, 12]: 1.34E-04; logIC10 ([1]; PPARγ bioassay cytotoxicity, dosing range high, log-logistic model): -3.96; IC10, linear transformed [1, 13]: 1.83E-05; IC10, linear [1, 13]: 1.11E-05; logIC10 ([1]; PPARγ bioassay cytotoxicity, dosing range low, log-logistic model): -5.06; Toxic ratio (TR) TRERα ([2]; against baseline cytotoxicity): 0.10; Toxic ratio (TR) TRAhR [3]: 0.68
Oc1ccc(Sc2ccc(O)cc2)cc1 [BPT, 4,4'-Thiodiphenol] | 71 |  |  |  |  |  | 3.29 | 1.35 |  | 17.4 | 4.06E-05 | 2.43E-05 | -4.53 | 24.3 | 8.07E-05 | 5.00E-05 | -4.09 | 50 | 4.47E-06 | -4.76 | IC10, linear [1, 20]: 2.13E-05; % Loss ([4]; Table S11): 87%; TKcytotoxicity ([6]; Table S11): 1.00
Oc1ccc(C2(c3ccc(O)cc3)CCCCC2)cc1 [BPZ, 1,1'-Bis(4-hydroxyphenyl)cyclohexane] | 12 |  |  |  |  |  | 4.64 | 0.53 |  | 9.12 | 8.13E-06 | 6.53E-06 | -5.18 | 6.64 | 8.38E-05 | 1.06E-04 | -4.08 | 83.8 | 4.22E-06 | -5.04 | 
COC(=O)C(c1ccc(O)cc1)c1ccc(O)cc1 [Bz, Methyl bis(4-hydroxyphenyl)acetate] | -7 | 1.07 | 113.92 | 1.14 | 100.34 | 1.00 | 2.06 | 2.48 | 0.92 | 282 |  |  |  | 1010 | 1.41E-04 | 1.09E-04 | -3.85 | 109 | 1.09E-04 | -3.55 | IC10, linear [1, 20]: 3.71E-04; IC10, linear transformed ([2]; Bioassay ERα, cytotoxicity, dosing range high): 1.18E-04; IC10, linear ([2]; Bioassay ERα, cytotoxicity, dosing range high, linear model fit): 1.01E-03; logIC10 ([2]; Bioassay ERα, cytotoxicity, dosing range high, log-logistic model fit): -3.63; IC10, linear ([2]; Bioassay ERα, cytotoxicity, dosing range low, linear model fit): no cytotoxicity; logIC10 ([2]; Bioassay ERα, cytotoxicity, dosing range low, log-logistic model fit): no cytotoxicity; Toxic ratio (TR) TRERα ([2]; against baseline cytotoxicity): 0.26; Toxic ratio (TR) TRAhR [3]: 3.18; TKcytotoxicity (TK-Ratio for cytotoxicity) [6]: 2.48 ± 0.69
O=C(OCc1ccccc1)c1ccc(O)cc1 [BzPB, Benzyl 4-hydroxybenzoate] | -22 | 1.22 | 115.59 | 1.16 | 128.10 | 1.28 | 3.30 | 1.10 | 0.35 | 46.8 | 1.15E-05 | 4.80E-05 | -4.38 | 42.1 | 2.87E-04 | 1.74E-04 | -3.54 | 174 | 3.90E-06 | -4.33 | IC10, linear [1, 20]: 3.41E-05; Toxic ratio (TR) TRERα ([2]; against baseline cytotoxicity): 0.39; Toxic ratio (TR) TRAhR [3]: 0.19
Cc1ccc(S(=O)(=O)NC(=O)Nc2cccc(OS(=O)(=O)c3ccc(C)cc3)c2)cc1 [Pergafast, N-(p-toluenesulfonyl)-N'-(3-(p-toluenesulfonyloxy)phenyl)urea] | 44 | 0.56 | 66.98 | 0.67 | 45.82 | 0.46 | 4.11 | 0.45 | 2.74 | 19.1 | 8.23E-06 | 1.21E-05 | -4.96 | 12.1 |  | no cytotoxicity | no cytotoxicity |  | 1.21E-06 | -4.72 | IC10, linear [1, 20]: 2.22E-05; Toxic ratio (TR) TRERα ([2]; against baseline cytotoxicity): 4.31; reduction of C parent after aCYP oxidation [4]: 44%; % Loss ([4]; Table S11): 32%; Cparent-Ratio Mean [4, 11]: 0.68; Cparent-Ratio Rep.1 [4, 11]: 0.75; Cparent-Ratio Rep.2 [4, 11]: 0.61
